Laboratory results as given in ChEMBL document CHEMBL5331050, “Spiro[benzoxazine-piperidin]-one derivatives as chitin synthase inhibitors and antifungal agents: Design, synthesis and biological evaluation” (Eur J Med Chem, 2022).
Converted amounts (≈) assume the structure as drawn.

Tests used:
Aspergillus flavus [1] = assay: Synergistic antifungal activity against Aspergillus flavus ATCC 16870 assessed as fractional inhibitory concentration index incubated for 24 hrs in the presence of fluconazole by broth dilution based checkerboard method; format: functional
Aspergillus flavus [2] = assay: Antifungal activity against Aspergillus flavus ATCC 16870 assessed as fungal growth inhibition incubated for 24 hrs by CLSI protocol based broth microdilution method; format: functional
Candida albicans [3] = assay: Antifungal activity against fluconazole-resistant Candida albicans ATCC 76615R assessed as fungal growth inhibition; format: functional
Candida albicans [4] = assay: Antifungal activity against micafungin-resistant Candida albicans ATCC 76615R assessed as fungal growth inhibition; format: functional
Candida albicans [5] = assay: Antifungal activity against Candida albicans ATCC 76615 assessed as fungal growth inhibition incubated for 24 hrs by CLSI protocol based broth microdilution method; format: functional
Cryptococcus neoformans [6] = assay: Antifungal activity against fluconazole-resistant Cryptococcus neoformans ATCC 208821R assessed as fungal growth inhibition; format: functional
Aspergillus flavus [7] = assay: Antifungal activity against Aspergillus flavus ATCC 16870 assessed as disruption of fungal wall by measuring fungal growth incubated for 24 hrs in the presence of sorbitol; format: functional
Candida albicans [8] = assay: Synergistic antifungal activity against Candida albicans ATCC 76615 assessed as fractional inhibitory concentration index incubated for 24 hrs in the presence of fluconazole by broth dilution based checkerboard method; format: functional
Aspergillus fumigatus [9] = assay: Antifungal activity against Aspergillus fumigatus GIMCC 3.19 assessed as fungal growth inhibition incubated for 24 hrs by CLSI protocol based broth microdilution method; format: functional
[10] = Selectivity ratio of MIC for antifungal activity against Candida albicans ATCC 76615 assessed as disruption of fungal wall by measuring fungal growth incubated for 24 hrs in the presence of sorbitol to MIC for antifungal activity against Candida albicans ATCC 76615 assessed as fungal growth inhibition; format: functional
Cryptococcus neoformans [11] = assay: Synergistic antifungal activity against Cryptococcus neoformans ATCC 208821 assessed as fractional inhibitory concentration index incubated for 24 hrs in the presence of fluconazole by broth dilution based checkerboard method; format: functional
Cryptococcus neoformans [12] = assay: Synergistic antifungal activity against Cryptococcus neoformans ATCC 208821 assessed as fungal growth inhibition incubated for 24 hrs in the presence of fluconazole by broth dilution based checkerboard method; format: functional
Candida tropicalis = assay: Inhibition of Candida tropicalis ATCC 750 chitin synthase using UDP-GlcNAc as substrate at 300 ug/ml incubated for 1 hrs by absorbance based assay relative to control; details: dose 300.0 µg/ml
Aspergillus flavus [13] = assay: Synergistic antifungal activity against Aspergillus flavus ATCC 16870 assessed as fungal growth inhibition incubated for 24 hrs in the presence of fluconazole by broth dilution based checkerboard method; format: functional
Cryptococcus neoformans [14] = assay: Antifungal activity against Cryptococcus neoformans ATCC 208821 assessed as disruption of fungal wall by measuring fungal growth incubated for 24 hrs in the presence of sorbitol; format: functional
Aspergillus fumigatus [15] = assay: Synergistic antifungal activity against Aspergillus fumigatus GIMCC 3.19 assessed as fractional inhibitory concentration index incubated for 24 hrs in the presence of fluconazole by broth dilution based checkerboard method; format: functional
Aspergillus fumigatus [16] = assay: Synergistic antifungal activity against Aspergillus fumigatus GIMCC 3.19 assessed as fungal growth inhibition incubated for 24 hrs in the presence of fluconazole by broth dilution based checkerboard method; format: functional
Candida albicans [17] = assay: Synergistic antifungal activity against Candida albicans ATCC 76615 assessed as fungal growth inhibition incubated for 24 hrs in the presence of fluconazole by broth dilution based checkerboard method; format: functional
Candida albicans [18] = assay: Antifungal activity against Candida albicans ATCC 76615 assessed as disruption of fungal wall by measuring fungal growth incubated for 24 hrs in the presence of sorbitol; format: functional
Aspergillus fumigatus [19] = assay: Antifungal activity against Aspergillus fumigatus GIMCC 3.19 assessed as disruption of fungal wall by measuring fungal growth incubated for 24 hrs in the presence of sorbitol; format: functional
Cryptococcus neoformans [20] = assay: Antifungal activity against Cryptococcus neoformans ATCC 208821 assessed as fungal growth inhibition incubated for 24 hrs by CLSI protocol based broth microdilution method; format: functional
[21] = Inhibition of Candida tropicalis ATCC 750 chitin synthase using UDP-GlcNAc as substrate incubated for 1 hrs by absorbance based assay
[22] = Inhibition of chitin synthase (unknown origin); design: species or system Fungi

Q: Which results are given for `COc1ccc2c(c1)C1(CCN(C(=O)/C=C/C(=O)Nc3ccc(Br)cc3)CC1)OC(=O)N2`?
A: fractional inhibitory concentration index (FICI) (Aspergillus flavus [1]): 3.67; MIC (Aspergillus flavus [2]): 32 µg/mL (≈ 64 µM); MIC (Candida albicans [3]): 32 µg/mL (≈ 64 µM); MIC (Candida albicans [4]): 32 µg/mL (≈ 64 µM); MIC (Candida albicans [5]): 26.7 µg/mL (≈ 53.3 µM); MIC (Cryptococcus neoformans [6]): 53.3 µg/mL (≈ 107 µM); MIC (Aspergillus flavus [7]): 256 µg/mL; fractional inhibitory concentration index (FICI) (Candida albicans [8]): 0.85; MIC (Aspergillus fumigatus [9]): 64 µg/mL (≈ 128 µM); Ratio [10]: 8; fractional inhibitory concentration index (FICI) (Cryptococcus neoformans [11]): 1; MIC (Cryptococcus neoformans [12]): 32 µg/mL; inhibition (Candida tropicalis): 83%; MIC (Aspergillus flavus [13]): 53.3 µg/mL; MIC (Cryptococcus neoformans [14]): 256 µg/mL; fractional inhibitory concentration index (FICI) (Aspergillus fumigatus [15]): 1.25; MIC (Aspergillus fumigatus [16]): 32 µg/mL; MIC (Candida albicans [17]): 16 µg/mL; MIC (Candida albicans [18]): 256 µg/mL; MIC (Aspergillus fumigatus [19]): 512 µg/mL; MIC (Cryptococcus neoformans [20]): 64 µg/mL (≈ 128 µM); IC50 [21]: 140 µM

Q: With `O=C(/C=C/C(=O)N1CCCC12Cc1ccccc1NC2=O)Nc1cccc([N+](=O)[O-])c1` (stereo not drawn) as the compound, how does the IC50 [22] read?
A: 100 µM

Q: Which results are given for `NC(=O)OC[C@H](O)[C@@H](O)[C@H](N)C(=O)N[C@H](C(=O)O)[C@H]1O[C@@H](n2cc(CO)c(=O)[nH]c2=O)[C@H](O)[C@@H]1O` [POLYOXIN B]?
A: MIC (Aspergillus flavus [2]): 64 µg/mL (≈ 126 µM); MIC (Candida albicans [5]): 64 µg/mL (≈ 126 µM); MIC (Aspergillus flavus [7]): > 512 µg/mL; MIC (Aspergillus fumigatus [9]): 32 µg/mL (≈ 63.1 µM); inhibition (Candida tropicalis): 85%; MIC (Cryptococcus neoformans [14]): > 512 µg/mL; MIC (Candida albicans [18]): 512 µg/mL; MIC (Aspergillus fumigatus [19]): 512 µg/mL; MIC (Cryptococcus neoformans [20]): 64 µg/mL (≈ 126 µM); IC50 [21]: 80 µM
